Measured values reported in patent publication EP0399422A1, “Benzocycloalkane derivatives and production thereof” (Takeda Chemical Industries, Ltd., priority 1989, dated 1990).

Test system: Acyl-CoA:cholesterol acyl transferase (ACAT)
Test: Acyl-CoA:cholesterol acyl transferase (ACAT) inhibiting activity
Type: biochemical, male Sprague-Dawley rats
Parameters: tested at 1 µM
Settings: inhibition of labeled cholesterol ester formation at 10⁻⁶ M of the test compounds; small intestine mucosa microsome fraction
Description: An ACAT enzyme preparation was obtained from the small intestine mucosa microsome fraction from male Sprague-Dawley rats of 6 weeks of age fasted for 20 hours, as described by Heider et al. [Journal of Lipid Research, 24, 1127 (1982)].
The ACAT activity was calculated by determining the yield of a labeled cholesterol ester from [1-¹⁴C]oleoyl-CoA and endogenous cholesterol using the method of Helgerud et al. [Journal of Lipid Research, 22, 271 (1981)].
The inhibition percentages of the labeled cholesterol ester formation at 10⁻⁶ M of the test compounds are shown in Table 1 as ACAT inhibiting activity indices.

Row | SMILES | % ACAT inhibition [%]
1 | CCC(c1ccccc1)N(C(=O)Nc1ccc(F)cc1F)C1Cc2ccccc2C1 (stereo not drawn) [Example 7, N-(2,4-Difluorophenyl)-N′-(2-indanyl)-N′-(1-phenylpropyl)urea] | 72
2 | O=C(Nc1ccc(F)cc1F)N(C1Cc2ccccc2C1)C(c1ccccc1)c1ccccc1 [Example 9, N-(2,4-Difluorophenyl)-N′-(2-indanyl)-N′-diphenyl methylurea] | 53
3 | COc1cc(CN(C(=O)Nc2ccc(F)cc2F)C2Cc3ccccc3C2)cc(OC)c1OC [Example 22, N-(2,4-Difluorophenyl)-N′-(2-indanyl)-N′-(3,4,5-trimethoxybenzyl)urea] | 55
4 | O=C(Nc1ccc(F)cc1F)N(CC1CCCCC1)C1Cc2ccccc2C1 [Example 26, N-Cyclohexylmethyl-N′-(2,4-difluorophenyl)-N-(2-indanyl)urea] | 60
5 | Cc1cc(C)c2c(c1)CC(N(Cc1ccccc1)C(=O)Nc1ccc(F)cc1F)C2 (stereo not drawn) [Example 27, N-Benzyl-N′-(2,4-difluorophenyl)-N-(4,6-dimethyl-2-indanyl)urea] | 58
6 | COc1ccc(OC)c2c1CC(N(Cc1ccccc1)C(=O)Nc1ccc(F)cc1F)C2 [Example 28, N-Benzyl-N′-(2,4-difluorophenyl)-N-(4,7-dimethoxy-2-indanyl)urea] | 56
7 | COc1cc(CN(C(=O)Nc2ccc(F)cc2F)C2Cc3ccccc3C2)c(OC)c(C)c1C [Example 35, N-(2,4-Difluorophenyl)-N′-(2-indanyl)-N′-(2,5-dimethoxy-3,4-dimethylbenzyl)urea] | 58
8 | Cc1cc(CN(C(=O)Nc2ccc(F)cc2F)C2Cc3ccccc3C2)c(C)c(C)c1O [Example 39, N-(2,4-Difluorophenyl)-N′-(4-hydroxy-2,3,5-trimethylbenzyl)-N′-(2-indanyl)urea] | 89
9 | CC(C)c1cc(CN(C(=O)Nc2ccc(F)cc2F)C2Cc3ccccc3C2)cc(C(C)C)c1O [Example 40, N-(2,4-Difluorophenyl)-N′-(4-hydroxy-3,5-diisopropylbenzyl)-N′-(2-indanyl)urea] | 83
10 | Cc1cc(O)c(C(C)(C)C)cc1CN(C(=O)Nc1ccc(F)cc1F)C1Cc2ccccc2C1 [Example 41, N-(5-tert-Butyl-4-hydroxy-2-methylbenzyl)-N′-(2,4-difluorophenyl)-N-(2-indanyl)urea] | 95
11 | CC(C)(C)c1cc(CN(C(=O)Nc2ccc(F)cc2F)C2Cc3ccccc3C2)cc(C(C)(C)C)c1O [Example 42, N-(3,5-Di-tert-butyl-4-hydroxybenzyl)-N′-(2,4-difluorophenyl)-N-(2-indanyl)urea] | 62
12 | Cc1cc(O)c(C(C)C)cc1CN(C(=O)Nc1ccc(F)cc1F)C1Cc2ccccc2C1 [Example 45, N-(2,4-Difluorophenyl)-N′-(4-hydroxy-5-isopropyl-2-methylbenzyl)-N′-(2-indanyl)urea] | 96
13 | Cc1cc(CN(C(=O)Nc2ccc(F)cc2F)C2Cc3ccccc3C2)c(C(C)C)cc1O [Example 46, N-(2,4-Difluorophenyl)-N′-(4-hydroxy-2-isopropyl-5-methylbenzyl)-N′-(2-indanyl)urea] | 77
14 | Cc1cc(O)c(C(C)(C)C)cc1CN(C(=O)Nc1ccc(F)cc1F)C1CCCc2ccccc2C1 (stereo not drawn) [Example 50, N-(5-tert-Butyl-4-hydroxy-2-methylbenzyl)-N′-(2,4-difluorophenyl)-N-(6,7,8,9-tetrahydro-5H-6-benzocycloheptenyl)urea] | 85
15 | Cc1ccc(C)c(CN(C(=O)Nc2ccc(F)cc2F)C2CCCc3ccccc3C2)c1 (stereo not drawn) [Example 56, N-(2,4-Difluorophenyl)-N′-(6,7,8,9-tetrahydro-5H-6-benzocycloheptenyl)-N′-(2,5-dimethylbenzyl)urea] | 79
16 | O=C(Nc1ccc(F)cc1F)N(Cc1ccccc1)C1CCc2ccccc21 (stereo not drawn) [Example 57, N-Benzyl-N′-(2,4-difluorophenyl)-N-(1-indanyl)urea] | 84
17 | O=C(Nc1ccc(F)cc1F)N(Cc1ccccc1)C1CCCc2ccccc21 (stereo not drawn) [Example 58, N-Benzyl-N′-(2,4-difluorophenyl)-N-(1,2,3,4-tetrahydro-1-naphthyl)urea] | 94
18 | O=C(Nc1ccc(F)cc1F)N(Cc1ccccc1)C1CCCCc2ccccc21 (stereo not drawn) [Example 59, N-Benzyl-N′-(2,4-difluorophenyl)-N-(6,7,8,9-tetrahydro-5H-5-benzocycloheptenyl)urea] | 80
19 | COc1cc(CN(C(=O)Nc2ccc(F)cc2F)C2CCc3ccccc32)cc(OC)c1O (stereo not drawn) [Example 60, N-(2,4-Difluorophenyl)-N′-(4-hydroxy-3,5-dimethoxybenzyl)-N′-(1-indanyl)urea] | 83
20 | COc1cc(CN(C(=O)Nc2ccc(F)cc2F)C2CCCc3ccccc32)cc(OC)c1O (stereo not drawn) [Example 61, N-(2,4-Difluorophenyl)-N′-(4-hydroxy-3,5-dimethoxybenzyl)-N′-(1,2,3,4-tetrahydro-1-naphthyl)urea] | 53
21 | COc1cc(CN(C(=O)Nc2ccc(F)cc2F)C2CCCCc3ccccc32)cc(OC)c1O (stereo not drawn) [Example 62, N-(2,4-Difluorophenyl)-N′-(6,7,8,9-tetrahydro-5H-5-benzocycloheptenyl)-N′-(4-hydroxy-3,5-dimethoxybenzyl)urea] | 69

Continued, values first:

Row | % ACAT inhibition [%] | SMILES
22 | 65 | O=C(Nc1ccc(F)cc1F)N(Cc1ccccc1)C1Cc2ccccc2C1 [Example 2, N-Benzyl-N′-(2,4-difluorophenyl)-N-(2-indanyl)urea]
23 | 76 | O=C(Nc1ccc(F)cc1F)N(Cc1ccc(Cl)cc1)C1Cc2ccccc2C1 [Example 5, N-(4-Chlorobenzyl)-N′-(2,4-difluorophenyl)-N-(2-indanyl)urea]
24 | 80 | CC(c1ccccc1)N(C(=O)Nc1ccc(F)cc1F)C1Cc2ccccc2C1 (stereo not drawn) [Example 6, N-(2,4-Difluorophenyl)-N′-(2-indanyl)-N′-(1-phenylethyl)urea]
25 | 72 | Cc1ccccc1CN(C(=O)Nc1ccc(F)cc1F)C1Cc2ccccc2C1 [Example 10, N-(2,4-Difluorophenyl)-N′-(2-indanyl)-N′-(2-methylbenzyl)urea]
26 | 64 | Cc1cccc(CN(C(=O)Nc2ccc(F)cc2F)C2Cc3ccccc3C2)c1 [Example 11, N-(2,4-Difluorophenyl)-N′-(2-indanyl)-N′-(3-methylbenzyl)urea]
27 | 77 | Cc1ccc(CN(C(=O)Nc2ccc(F)cc2F)C2Cc3ccccc3C2)cc1 [Example 12, N-(2,4-Difluorophenyl)-N′-(2-indanyl)-N′-(4-methylbenzyl)urea]
28 | 86 | CC(C)c1ccc(CN(C(=O)Nc2ccc(F)cc2F)C2Cc3ccccc3C2)cc1 [Example 13, N-(4-Isopropylbenzyl)-N′-(2,4-difluorophenyl)-N-(2-indanyl)urea]
29 | 88 | Cc1ccc(CN(C(=O)Nc2ccc(F)cc2F)C2Cc3ccccc3C2)c(C)c1 [Example 15, N-(2,4-Difluorophenyl)-N′-(2-indanyl)-N′-(2,4-dimethylbenzyl)urea]
30 | 86 | Cc1ccc(C)c(CN(C(=O)Nc2ccc(F)cc2F)C2Cc3ccccc3C2)c1 [Example 16, N-(2,4-Difluorophenyl)-N′-(2-indanyl)-N′-(2,5-dimethylbenzyl)urea]
31 | 75 | Cc1cc(C)c(CN(C(=O)Nc2ccc(F)cc2F)C2Cc3ccccc3C2)c(C)c1 [Example 17, N-(2,4-Difluorophenyl)-N′-(2-indanyl)-N′-(2,4,6-trimethylbenzyl)urea]
32 | 55 | COc1ccccc1CN(C(=O)Nc1ccc(F)cc1F)C1Cc2ccccc2C1 [Example 19, N-(2,4-Difluorophenyl)-N′-(2-indanyl)-N′-(2-methoxybenzyl)urea]
33 | 72 | COc1ccc(CN(C(=O)Nc2ccc(F)cc2F)C2Cc3ccccc3C2)c(OC)c1 [Example 20, N-(2,4-Difluorophenyl)-N′-(2-indanyl)-N′-(2,4-dimethoxybenzyl)urea]
34 | 57 | O=C(Nc1ccc(F)cc1F)N(Cc1cccs1)C1Cc2ccccc2C1 [Example 23, N-(2,4-Difluorophenyl)-N′-(2-indanyl)-N′-(2-thienylmethyl)urea]
35 | 57 | COc1cc(CN(C(=O)Nc2ccc(F)cc2F)C2Cc3ccccc3C2)ccc1O [Example 33, N-(2,4-Difluorophenyl)-N′-(4-hydroxy-3-methoxybenzyl)-N′-(2-indanyl)urea]
36 | 72 | COc1cc(C)c(CN(C(=O)Nc2ccc(F)cc2F)C2Cc3ccccc3C2)cc1C [Example 36, N-(2,4-Difluorophenyl)-N′-(2-indanyl)-N′-(4-methoxy-2,5-dimethylbenzyl)urea]
37 | 93 | Cc1cc(CN(C(=O)Nc2ccc(F)cc2F)C2Cc3ccccc3C2)c(C)cc1O [Example 37, N-(2,4-Difluorophenyl)-N′-(4-hydroxy-2,5-dimethylbenzyl)-N′-(2-indanyl)urea]
38 | 63 | O=C(Nc1ccc(F)cc1F)N(Cc1ccccc1)C1CCc2ccccc2C1 (stereo not drawn) [Example 44, N-Benzyl-N′-(2,4-difluorophenyl)-N-(1,2,3,4-tetrahydro-2-naphthyl)urea]
39 | 89 | O=C(Nc1ccc(F)cc1F)N(Cc1ccccc1)C1CCCc2ccccc2C1 (stereo not drawn) [Example 49, N-Benzyl-N′-(2,4-difluorophenyl)-N-(6,7,8,9-tetrahydro-5H-6-benzocycloheptenyl)urea]
